# Measurements as given in US20220125898A1, “PAR2 MODULATION AND METHODS THEREOF” (JANSSEN BIOTECH, INC., priority 2019, published 2022).
# Tests used:
# [1] = target: T1, recombinantly expressed PAR2 (Homo sapiens, UniProt P55085); assay: FLIPR intracellular Ca2+ mobilization, recombinant wild type PAR2 transiently expressed in par1/par2 knock-out HEK293; format: cell-based
# T1 construct: was used to amplify the full length PAR2 cDNA coding region; expressed in transfected cells; host or cells: HEK293 cells with par1 and par2 knocked out, transient, pcDNA3.1
# T1 sequence (P55085 26-397): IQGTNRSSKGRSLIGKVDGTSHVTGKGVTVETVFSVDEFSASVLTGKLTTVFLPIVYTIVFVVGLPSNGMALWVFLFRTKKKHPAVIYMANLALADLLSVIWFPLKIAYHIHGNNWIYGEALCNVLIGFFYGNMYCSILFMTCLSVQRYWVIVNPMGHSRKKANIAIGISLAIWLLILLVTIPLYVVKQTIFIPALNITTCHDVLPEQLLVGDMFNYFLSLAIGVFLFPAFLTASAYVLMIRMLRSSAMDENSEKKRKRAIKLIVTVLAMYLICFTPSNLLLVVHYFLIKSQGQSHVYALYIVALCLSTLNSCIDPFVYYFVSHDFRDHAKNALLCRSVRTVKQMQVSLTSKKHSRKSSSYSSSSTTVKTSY
# Method: (§1) FLIPR-Tetra (Molecular Device, San Jose, Calif.) was used to monitor intracellular Ca^2+ mobilization in HEK293 cells, HEK293 cells with PAR1 and PAR2 knocked-out, and cells transiently transfected with various PAR2 expression constructs. Cells were grown in 96-well polyD-lysine coated black FLIPR plates (Corning) in DMEM supplemented with 10% FCS, 1 mM pyruvate, 20 mM HEPES, at 37° C. with 5% CO2. For transient transfection, cells were grown in 96-well polyD-lysine coated black FLIPR plates and transfected using FuGENE HD (Promega, Madison, Wis.) as the transfection reagent according to the manufacturer's instructions. For samples treated with protease inhibitors, protease cocktail was added to cell culture one day after transfection and incubated overnight. Two days after transfection, cell culture media were removed, and cells were washed using HMS buffer plus 20 mM HEPES. Ca^2+ dye (Flura 3) diluted in HMS buffer plus 20 mM HEPES was used to incubate cells at RT for 40 minutes to allow Ca^2+ to enter cells. Intracellular Ca^2+ mobilization stimulated by various concentrations of ligands (trypsin, or peptide ligand) was monitored by FLIPR-Tetra as described (Liu et al., Mol. Pharmacol. 88:911-25 (2015)). The untransfected cells were used as negative controls.
# [2] = target: T2, endogenously expressed PAR2 in HEK293 cells (Homo sapiens, UniProt P55085); assay: FLIPR intracellular Ca2+ mobilization, wild type HEK293 cells; format: cell-based; details: endogenous PAR2, HEK293 cells
# T2 construct: the endogenously expressed PAR2 in HEK293 cells; endogenous in cells; host or cells: wild type HEK293 cells
# T2 sequence (P55085 26-397): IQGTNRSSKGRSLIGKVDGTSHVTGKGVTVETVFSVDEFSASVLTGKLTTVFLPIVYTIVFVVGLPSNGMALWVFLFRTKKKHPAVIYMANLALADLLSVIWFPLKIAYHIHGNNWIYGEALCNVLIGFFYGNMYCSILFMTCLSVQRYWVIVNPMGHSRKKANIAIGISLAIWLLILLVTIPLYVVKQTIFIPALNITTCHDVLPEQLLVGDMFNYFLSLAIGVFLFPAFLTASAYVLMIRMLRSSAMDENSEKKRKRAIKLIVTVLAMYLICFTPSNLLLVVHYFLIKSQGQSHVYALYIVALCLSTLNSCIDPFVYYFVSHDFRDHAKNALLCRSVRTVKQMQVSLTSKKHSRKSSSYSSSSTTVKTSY
# Method: as §1
# [3] = target: T3, PAR2ΔSP (Homo sapiens, UniProt P55085); assay: FLIPR intracellular Ca2+ mobilization, PAR2 without signal peptide in par1/par2 knock-out HEK293; format: cell-based; details: PAR2 without its signal peptide
# T3 construct: expressed in transfected cells; host or cells: HEK293 cells with par1 and par2 knocked out, transient, pcDNA3.1
# T3 sequence (P55085 with tags, fused parts or gaps): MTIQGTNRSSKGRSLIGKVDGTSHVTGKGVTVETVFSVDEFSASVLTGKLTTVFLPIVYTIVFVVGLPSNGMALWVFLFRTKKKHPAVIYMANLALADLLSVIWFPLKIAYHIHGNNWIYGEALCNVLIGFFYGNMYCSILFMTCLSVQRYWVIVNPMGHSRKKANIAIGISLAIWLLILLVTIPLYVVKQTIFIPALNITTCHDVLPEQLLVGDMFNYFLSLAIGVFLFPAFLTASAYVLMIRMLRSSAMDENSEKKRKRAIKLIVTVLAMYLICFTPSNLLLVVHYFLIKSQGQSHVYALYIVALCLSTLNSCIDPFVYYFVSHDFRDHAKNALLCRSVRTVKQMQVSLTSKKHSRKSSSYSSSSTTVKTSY
# Method: as §1, with “controls. […]” for “controls.”
# [4] = target: T4, PAR2ΔSPΔL (Homo sapiens, UniProt P55085); assay: FLIPR intracellular Ca2+ mobilization, PAR2 without signal peptide and tethered ligand; format: cell-based
# T4 construct: expressed in transfected cells; host or cells: HEK293 cells with par1 and par2 knocked out, transient
# T4 sequence (P55085 with tags, fused parts or gaps): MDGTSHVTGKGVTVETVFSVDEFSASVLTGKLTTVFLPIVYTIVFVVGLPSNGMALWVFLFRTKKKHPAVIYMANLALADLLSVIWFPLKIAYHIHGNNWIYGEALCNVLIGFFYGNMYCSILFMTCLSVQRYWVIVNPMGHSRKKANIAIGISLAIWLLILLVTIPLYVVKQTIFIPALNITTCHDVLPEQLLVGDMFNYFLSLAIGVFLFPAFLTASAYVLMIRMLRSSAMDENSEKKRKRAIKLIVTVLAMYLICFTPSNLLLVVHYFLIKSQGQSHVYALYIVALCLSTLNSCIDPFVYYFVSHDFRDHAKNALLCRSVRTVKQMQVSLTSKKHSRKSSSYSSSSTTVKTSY
# Method: as §1, with “Intracellular Ca^2+ mobilization stimulated by various concentrations of ligands (trypsin, or peptide ligand) was monitored by FLIPR-Tetra as described (Liu et al., Mol. Pharmacol. 88:911-25 (2015)).” left out
# [5] = target: T5, PAR2(R36A) (Homo sapiens, UniProt P55085, R36A); assay: FLIPR intracellular Ca2+ mobilization, full length PAR2 with Arg36Ala mutation; format: cell-based
# T5 construct: expressed in transfected cells; host or cells: HEK293 cells with par1 and par2 knocked out, transient
# T5 sequence (P55085 26-397 R36A): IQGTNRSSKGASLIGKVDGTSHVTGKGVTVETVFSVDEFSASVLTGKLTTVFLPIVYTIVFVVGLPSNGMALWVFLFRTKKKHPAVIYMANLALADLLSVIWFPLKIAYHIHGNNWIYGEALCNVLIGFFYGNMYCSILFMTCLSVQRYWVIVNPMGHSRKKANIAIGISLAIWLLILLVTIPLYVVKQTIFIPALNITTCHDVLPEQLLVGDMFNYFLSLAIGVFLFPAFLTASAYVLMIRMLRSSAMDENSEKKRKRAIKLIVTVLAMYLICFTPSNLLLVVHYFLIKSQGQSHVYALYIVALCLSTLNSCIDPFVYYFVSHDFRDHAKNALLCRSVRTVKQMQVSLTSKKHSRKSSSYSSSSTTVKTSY
# Method: as §1, with “Intracellular Ca^2+ mobilization stimulated by various concentrations of ligands (trypsin, or peptide ligand) was monitored by FLIPR-Tetra as described (Liu et al., Mol. Pharmacol. 88:911-25 (2015)).” left out
# [6] = test system: HEK293 cells with par1 and par2 knocked-out; assay: FLIPR characterization of par1 and par2 knock-out HEK293 cells; format: cell-based, human
# Excerpt: A PAR1, PAR2 knock-out HEK293 cell line was created by Applied StemCells (Milpitas, Calif.) using a CRISPR/Cas9 approach. Briefly, the coding region (nucleotide 374-643) of PAR1, which encodes the protein region transmembrane region 2 (TM2) to transmembrane region 3 (TM3) of PAR1, was deleted. Similarly, the coding region (281-627) of PAR2, which encodes the protein region TM2 to TM3 of PAR2, was deleted. Single cell clones were isolated. PCR analysis of the genomic DNA followed by DNA sequencing was used to confirm the deletion of the DNA fragments.
# as §1, with “For samples treated with protease inhibitors, protease cocktail was added to cell culture one day after transfection and incubated overnight. Two days after transfection, cell culture media were removed, and cells were washed using HMS buffer plus 20 mM HEPES. Ca^2+ dye (Flura 3) diluted in HMS buffer plus 20 mM HEPES was used to incubate cells at RT for 40 minutes to allow Ca^2+ to enter cells.” left out, “The untransfected cells were used as negative controls.” left out
# [7] = target: T6, PAR2ΔSP(R36A) (Homo sapiens, UniProt P55085, R36A); assay: FLIPR intracellular Ca2+ mobilization, signal peptide-less PAR2 with Arg36Ala mutation; format: cell-based
# T6 construct: expressed in transfected cells; host or cells: HEK293 cells with par1 and par2 knocked out, transient
# T6 sequence (P55085 with tags, fused parts or gaps R36A): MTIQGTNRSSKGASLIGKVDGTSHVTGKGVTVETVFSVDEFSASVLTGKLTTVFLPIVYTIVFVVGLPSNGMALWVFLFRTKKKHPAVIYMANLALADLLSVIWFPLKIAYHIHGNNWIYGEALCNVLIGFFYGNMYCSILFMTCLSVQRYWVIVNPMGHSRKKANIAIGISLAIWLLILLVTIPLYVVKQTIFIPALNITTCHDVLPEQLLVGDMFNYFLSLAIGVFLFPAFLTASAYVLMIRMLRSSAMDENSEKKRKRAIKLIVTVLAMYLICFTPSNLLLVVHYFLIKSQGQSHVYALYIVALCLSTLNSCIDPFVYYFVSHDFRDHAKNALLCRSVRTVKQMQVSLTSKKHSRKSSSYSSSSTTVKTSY
# Method: as §1, with “Intracellular Ca^2+ mobilization stimulated by various concentrations of ligands (trypsin, or peptide ligand) was monitored by FLIPR-Tetra as described (Liu et al., Mol. Pharmacol. 88:911-25 (2015)).” left out
# [8] = target: T7, PAR2 with the signal peptide deleted (PAR2ΔSP) (human, UniProt P55085 37-397); assay: cell-based or functional assay
# T7 sequence: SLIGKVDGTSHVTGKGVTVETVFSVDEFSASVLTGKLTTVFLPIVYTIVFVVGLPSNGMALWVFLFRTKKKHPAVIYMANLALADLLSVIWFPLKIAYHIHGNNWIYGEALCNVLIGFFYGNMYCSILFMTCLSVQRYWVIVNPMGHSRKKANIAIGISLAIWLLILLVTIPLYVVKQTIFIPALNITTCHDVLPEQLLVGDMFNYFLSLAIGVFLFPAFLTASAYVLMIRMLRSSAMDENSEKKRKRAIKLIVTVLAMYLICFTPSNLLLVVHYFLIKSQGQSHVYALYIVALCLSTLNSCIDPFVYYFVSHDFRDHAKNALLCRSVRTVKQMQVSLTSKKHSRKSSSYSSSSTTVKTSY
# [9] = target: T8, PAR2 endogenously expressed in HEK293 cells (human, UniProt P55085 37-397); assay: cell-based or functional assay
# T8 sequence (looked up): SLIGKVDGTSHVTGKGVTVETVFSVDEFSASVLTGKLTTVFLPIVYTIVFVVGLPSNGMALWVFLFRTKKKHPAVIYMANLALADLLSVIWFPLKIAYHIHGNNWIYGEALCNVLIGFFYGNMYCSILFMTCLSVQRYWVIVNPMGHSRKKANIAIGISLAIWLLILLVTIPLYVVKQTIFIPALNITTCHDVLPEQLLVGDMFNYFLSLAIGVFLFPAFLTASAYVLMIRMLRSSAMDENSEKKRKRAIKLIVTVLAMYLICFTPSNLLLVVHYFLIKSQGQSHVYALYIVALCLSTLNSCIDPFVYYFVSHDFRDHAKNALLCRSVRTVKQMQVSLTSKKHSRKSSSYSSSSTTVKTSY
# [10] = target: T9, Human PAR2 wild type, recombinantly expressed in HEK293 cells with par1 and par2 knocked-out (human, UniProt P55085 37-397); assay: cell-based or functional assay
# T9 sequence: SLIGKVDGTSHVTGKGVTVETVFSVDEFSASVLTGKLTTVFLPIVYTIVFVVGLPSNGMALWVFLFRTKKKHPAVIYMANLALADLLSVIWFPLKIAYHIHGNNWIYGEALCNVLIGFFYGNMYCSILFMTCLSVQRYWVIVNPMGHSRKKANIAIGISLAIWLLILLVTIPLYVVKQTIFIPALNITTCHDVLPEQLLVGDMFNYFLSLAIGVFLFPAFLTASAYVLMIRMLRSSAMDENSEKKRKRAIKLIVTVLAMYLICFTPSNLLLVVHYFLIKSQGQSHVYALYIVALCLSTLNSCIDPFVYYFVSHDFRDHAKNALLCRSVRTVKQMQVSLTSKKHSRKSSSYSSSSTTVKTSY
Molecule,EC50 [1] [nM],EC50 [2] [nM],EC50 [3] [nM],receptor activation in FLIPR assay [4],receptor response to ligand stimulation in FLIPR assay [5],response of knock-out cells to ligand [6],receptor response to ligand stimulation in FLIPR assay [7],"EC50, FLIPR intracellular Ca2+ mobilization [8] [nM]","EC50, FLIPR intracellular Ca2+ mobilization, cells treated with protease inhibitor cocktail [8] [nM]","EC50, FLIPR intracellular Ca2+ mobilization [9] [nM]","EC50, FLIPR intracellular Ca2+ mobilization [10] [nM]"
trypsin,1.5,10,50,not activated,very poorly,lack of response,blocked,,,,
"SLIGKV [PAR2 agonist peptide ligand, SLIGKV]",,,,,,,,5800,700,1500,50
